Values after ≈ are worked out from the molar mass of the structure shown. “Also recorded” adds a separate entry of the source. Read-outs that look alike come from different tables or passages of the source.
Key:
[1] = system: aorta; experiment: Force development in isolated thoracic aorta rings; assay type: cell-based, rabbit (male New Zealand white)
Protocol: Male New Zealand white rabbits were euthanized by intravenous barbiturate overdose. The thoracic aorta and the left and right external jugular veins were then removed into warm (37° C.) physiological salt solution (PSS) of the following composition (mM): NaCl, 118.4; KCl, 4.7; CaCl2, 2.5; MgSO4, 1.2; NaHCO3, 24.9; KH2 PO4, 1.2; glucose, 11.1 and EDTA, 0.023; gassed with 95% O2 /5% CO2, pH 7.4. The vessels were cleaned of fat and loose adventitia and subsequently cut into rings 3-4 mm in width. The endothelium was removed from the rings, unless otherwise indicated, by gently rotating a metal probe in the lumen of the ring. The rings were then suspended in water-jacketed (37° C.) 10 ml tissue baths between two wire holders, one of which was attached to a fixed hook and the other to an isometric force transducer. Resting tension was set at 4 g for the aorta and 1 g for the jugular vein. The venous tissues were allowed to stabilize for a period of one hour and then challenged with a maximally effective concentration of bradykinin (1 μM) to evoke a tonic contracture. This response was used as a comparative reference response. Carbachol (1 μM) was introduced into the bath following stabilization of the bradykinin contracture to test for the presence of endothelium. […] The tissues were washed multiple times with fresh PSS and allowed to recover for one hour following complete relaxation from the previous bradykinin response. […] Inhibitors (enzyme or receptor) or their vehicle were introduced into the tissue bath 30 mins prior to the addition of stimulant. […]
(§1) Force (mean±S.E.) is expressed as a percentage of the corresponding bradykinin or phenylephrine reference response. KB values were determined by Schild analysis and KBapp by the following formula: KBapp =[antagonist]/agonist concentration ratio-1, where agonist concentration ratio=agonist EC50 measured in presence of antagonist/agonist EC50 measured in presence of vehicle. The statistical significance between means was determined using Student's t-test with p<0.05 considered statistically significant.

[2] = system: jugular vein; experiment: Force development in isolated jugular vein rings; assay type: cell-based, rabbit (male New Zealand white); settings: for EC50: read-out: EC50 for ricinoleic acid-induced force; for Force development / vasoconstriction (result in words): cumulative addition, isolated vessel
Protocol: (§2) Male New Zealand white rabbits were euthanized by intravenous barbiturate overdose. The thoracic aorta and the left and right external jugular veins were then removed into warm (37° C.) physiological salt solution (PSS) of the following composition (mM): NaCl, 118.4; KCl, 4.7; CaCl2, 2.5; MgSO4, 1.2; NaHCO3, 24.9; KH2 PO4, 1.2; glucose, 11.1 and EDTA, 0.023; gassed with 95% O2 /5% CO2, pH 7.4. The vessels were cleaned of fat and loose adventitia and subsequently cut into rings 3-4 mm in width. The endothelium was removed from the rings, unless otherwise indicated, by gently rotating a metal probe in the lumen of the ring. The rings were then suspended in water-jacketed (37° C.) 10 ml tissue baths between two wire holders, one of which was attached to a fixed hook and the other to an isometric force transducer. Resting tension was set at 4 g for the aorta and 1 g for the jugular vein. The venous tissues were allowed to stabilize for a period of one hour and then challenged with a maximally effective concentration of bradykinin (1 μM) to evoke a tonic contracture. This response was used as a comparative reference response. Carbachol (1 μM) was introduced into the bath following stabilization of the bradykinin contracture to test for the presence of endothelium. […] The tissues were washed multiple times with fresh PSS and allowed to recover for one hour following complete relaxation from the previous bradykinin response. […] Inhibitors (enzyme or receptor) or their vehicle were introduced into the tissue bath 30 mins prior to the addition of stimulant.
(§3) Cremophor and ricinoleic acid (Sigma Chemical company) were also diluted in ethanol. […] Ricinoleic acid was diluted in ethanol to produce final bath concentrations of (μg/ml; final bath concentration of ethanol in parentheses): 0.1 (0.1%), 0.3 (0.3%), 1.0 (0.37%), 3.0 (0.57%), 10 (0.64%), 30 (0.84%). For reference, 0.1-30 μg/ml ricinoleic acid corresponds to a molar concentration range of 0.335-100.50 μM.
as §1

[3] = Solubility in physiological salt solution bath; assay type: physicochemical; settings: pH 7.4, ricinoleic acid in tissue bath, read-out: Concentration at which precipitation begins
[4] = system: rat aorta; experiment: Ricinoleic acid force development in rat aorta; assay type: cell-based
[5] = system: tissues with an intact endothelium; experiment: Relaxation of endothelium-intact tissues by carbachol; assay type: cell-based, rabbit; settings: Oryctolagus cuniculus; carbachol (1 μM) on bradykinin contracture
Protocol: Male New Zealand white rabbits were euthanized by intravenous barbiturate overdose. The thoracic aorta and the left and right external jugular veins were then removed into warm (37° C.) physiological salt solution (PSS) of the following composition (mM): NaCl, 118.4; KCl, 4.7; CaCl2, 2.5; MgSO4, 1.2; NaHCO3, 24.9; KH2 PO4, 1.2; glucose, 11.1 and EDTA, 0.023; gassed with 95% O2 /5% CO2, pH 7.4. The vessels were cleaned of fat and loose adventitia and subsequently cut into rings 3-4 mm in width. The endothelium was removed from the rings, unless otherwise indicated, by gently rotating a metal probe in the lumen of the ring. The rings were then suspended in water-jacketed (37° C.) 10 ml tissue baths between two wire holders, one of which was attached to a fixed hook and the other to an isometric force transducer. Resting tension was set at 4 g for the aorta and 1 g for the jugular vein. The venous tissues were allowed to stabilize for a period of one hour and then challenged with a maximally effective concentration of bradykinin (1 μM) to evoke a tonic contracture. This response was used as a comparative reference response. Carbachol (1 μM) was introduced into the bath following stabilization of the bradykinin contracture to test for the presence of endothelium. […]

[6] = molecular target: T1, CsA-induced force development in the jugular vein (thromboxane A2 receptors) (Oryctolagus cuniculus, UniProt Q6WQI8); experiment: Inhibition of CsA-induced force in the jugular vein; assay type: cell-based, rabbit; settings: for Effect on potency and maximal contractile effect of CsA (words): phentolamine 10 μM
T1 sequence (Q6WQI8 1-233): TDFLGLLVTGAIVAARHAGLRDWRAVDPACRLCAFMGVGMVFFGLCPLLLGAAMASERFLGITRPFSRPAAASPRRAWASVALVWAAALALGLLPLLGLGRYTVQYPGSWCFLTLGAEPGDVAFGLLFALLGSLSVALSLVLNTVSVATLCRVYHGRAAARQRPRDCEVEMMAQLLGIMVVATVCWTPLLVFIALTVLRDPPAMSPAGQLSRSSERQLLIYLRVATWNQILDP
Protocol: as §2, §3, §1

Q: Which EC50 ([1]; Oryctolagus cuniculus, rabbit aorta, n=5, read-out: EC50 for ricinoleic acid-induced force) does the source give for `CCCCCC[C@@H](O)C/C=C\CCCCCCCC(=O)O` [ricinoleic acid] here?
A: Its EC50 is 4.7 ± 0.7 µg/mL (≈ 15.7 µM).

Q: And the “Force development (result in words)” value ([1]; aorta)?
A: The value was “concentration-dependent increases in force”.

Q: And the “Fold more potent than Cremophor” value ([1]; in the aorta)?
A: The value was 326 times.

Q: And the EC50 ([2]; Oryctolagus cuniculus, control for indomethacin comparison, n=4)?
A: Its EC50 is 0.17 ± 0.05 µg/mL.

Q: And the EC50 ([2]; Oryctolagus cuniculus, in presence of indomethacin, n=4)?
A: The EC50 was 0.4 ± 0.11 µg/mL.

Q: What about the EC50 ([2]; Oryctolagus cuniculus, jugular vein, molar conversion) of the same compound?
A: The EC50 was 800 nM.

Q: And the EC50 ([2]; Oryctolagus cuniculus, jugular vein, n=9)?
A: Its EC50 is 0.24 ± 0.04 µg/mL.

Q: And the “Force development / vasoconstriction (result in words)” value (“Force development / vasoconstriction” for short) [2]?
A: The value was “cause vasoconstriction”.

Q: What about the “Force development / vasoconstriction” value ([2]; listed as Ricinoleic acid) of the same compound?
A: Its value is “concentration-dependent increases in force”.

Q: And the “Fold more potent than Cremophor” value ([2]; in the vein)?
A: The value was 165 times.

Q: And the “Fold more potent in vein than in aorta” value ([2]; ricinoleic acid, vein vs aorta)?
A: The value was “approximately 20 times”.

Q: And the “Thromboxane A2 agonist character” value ([2]; summary conclusion)?
A: The value was “weak thromboxane A2 agonist”.

Q: What about the solubility [3] of the same compound?
A: The solubility was at least 100 µg/mL.

Q: What about the Emax at 100 µg/mL ([4]; 100 μg/ml ricinoleic acid, rat aorta, n=4, read-out: Force as % of maximum phenylephrine-induced response) of the same compound?
A: Its Emax at 100 µg/mL is 18.8 ± 2.5%.

Q: What about the EC50 ([4]; rat aorta, n=4, read-out: EC50 for ricinoleic acid-induced force) of the same compound?
A: Its EC50 is over 10 µM.

Q: And the “Sensitivity of rat aorta” value ([4]; vs vein or rabbit aorta)?
A: Its value is “considerably less sensitive”.

Q: Which Percent relaxation at 1 µM [5] does the source give for `C[N+](C)(C)CCOC(N)=O` [carbachol] here?
A: The Percent relaxation at 1 µM was 50 to 100%.

Q: With `Cc1ccc(N(CC2=NCCN2)c2cccc(O)c2)cc1` [phentolamine] as the compound, how does the “Effect on potency and maximal contractile effect of CsA (words)” value [6] read?
A: The value was “insensitive to phentolamine; also recorded: failed to antagonize the effects of CsA”.

Q: And the “Effect on potency and maximal contractile effect of CsA (words)” value ([6]; listed as Phentolamine)?
A: Its value is “significantly affected neither the potency nor the maximal contractile effect of CsA”.

Q: For `CC1(C)Oc2ccc(C#N)cc2C(N2CCCC2=O)C1O` (stereo not shown) [cromakalim], which “Effect on CsA-induced force” value ([6]; CsA 3 μg/ml, present results) is on record?
A: The value was “evoke relaxation of CsA (3 μg/ml CsA)-induced force”.

Q: With `CCO` [ethanol] as the compound, how does the Emax at 0.44 % ([2]; Oryctolagus cuniculus, cumulative addition of 0.44% ethanol, n=3, read-out: Force as % of bradykinin reference force) read?
A: Its Emax at 0.44 % is 24.1 ± 3.3%.

Q: What about the “Force development / vasoconstriction” value [2] of the same compound?
A: The value was “constrict the vein”.

— US5462726A, “Method of inhibiting side effects of solvents containing ricinoleic acid or castor oil or derivatives thereof employing a thromboxane A2 receptor antagonist and pharmaceutical compositions containing such solvents” (priority 1993, dated 1995)
